Results on seven compounds are retold here after PMC13415800 (Pharmaceutics, 2026).

The test system of series [1] is Vero E6 cell line. The note with it: compound concentration producing minimal changes in cell morphology, estimated by microscopy.
Series [2] deals with Vero E6 cell line. To be noted: for CC50: MTT.
For series [3], the system named is ZIKV (MR766, Uganda). The series is classed as cell-based, Zika virus. To be noted: Vero E6; ZIKV MOI 1; five days; highest concentration without cytotoxicity (MCC).
Series [4] relates to Vero E6 cells. In words: Phospholipidosis assay (LipidTOX Deep Red). The series is classed as cell-based, African green monkey (Cercopithecus aethiops). To be noted: 48 h. As for the experimental part: Vero E6 cells were seeded in 96-well plates and treated with compound 7 at the indicated concentrations for 48 h. Propranolol (30 µM) was used as a positive control and DMSO as vehicle control. Phospholipid accumulation was detected using LipidTOX™ Deep Red phospholipidosis stain (Thermo Fisher Scientific, Waltham, MA, USA, H34158) according to the manufacturer’s instructions. Nuclei were counterstained with Hoechst 33342. Representative images were acquired by confocal microscopy.

Series [5] has as its system ZIKV. In words: Time of drug addition assay (qRT-PCR). In kind it is cell-based, Zika virus. The note with it: Vero E6, MOI 1, 50 µM, 24 h pi. On the procedure:
Vero E6 cells were seeded on 96-well plates at 3.5 × 10^4 well and incubated (37 °C, 5% CO2) overnight. The cells were infected for 1 h with MOI of 1. Cells were treated with 50 µM of compound 7. Cells were treated at three different times: 1 h before infection, concurrently with the infection, and one hour post-infection. After the infection, the supernatant was discarded and the cells were incubated for 24 h with the media, then RNA was isolated from the supernatant and quantified using qRT-PCR (see below).
(§1) For viral RNA isolation, the Total RNA Miniprep Kit (New England Biolabs, Ipswich, USA) was used, following the manufacturer’s instruction. After RNA elution, samples were stored at −80 °C until use. For the determination of viral RNA quantity, we used the Luna® Universal Probe One-Step RT-qPCR Kit (New England Biolabs, Ipswich, MA, USA). The primers used were ZIKV_NS1_F: […], ZIKV_NS1_R: […], and the probe was FAM-5′-CCC GCA GAT-3′ /ZEN/ 5′-TGG CAG CAG-3′-BHQ1. […]
We divided the samples into five groups based on the timing of treatment: no-treatment (ZIKV), pre-treatment for 1 h (pre), co-treatment (co), post-treatment for 1 h (post), and full treatment (full) (Figure 3A). Twenty-four hours post-infection (pi), we isolated viral RNA from the supernatant and quantified it using qRT-PCR. […]

Series [6] concerns ZIKV. In words: Binding assay (qRT-PCR). In kind it is cell-based, Zika virus. To be noted: Vero E6; MOI 1; 50 µM; 1 h at 4 °C. On the procedure:
(§2) Vero E6 cells were seeded on 96 well plate 3.5 × 10^4 well and incubated (37 °C, 5% CO2) overnight. 1 h before the infection we put the cells at 4 °C. During the entry assay cells were infected for 1 h at 4 °C and MOI of 1, then washed twice with PBS. Afterward, they were treated with 50 µM of compound 7, lasting for 1 h (37 °C, 5% CO2). During the binding assay the cells were infected as before for 1 h at 4 °C and at the same time treated with 50 µM of compound 7. Following both of the treatments, the cells were washed once with PBS, then RNA was isolated from the cells. Viral RNA was quantified using qRT-PCR (see below). This assay was developed based on the methods established by Lu et al..
as §1
(§3) To gain a more precise understanding of the mechanism of action of compound 7, binding and entry assays were performed. […] After incubation, cells were washed with PBS prior to RNA extraction, and viral RNA levels were quantified by qRT-PCR.

In series [7] the test system is ZIKV. Kind of series: Entry assay (qRT-PCR). In kind it is cell-based, Zika virus. The note with it: Vero E6; MOI 1; infection 1 h 4 °C, then 50 µM 1 h 37 °C. On the procedure:
as §2, §1, §3

The subject of series [8] is ZIKV. Kind of series: Virion inactivation assay (cell-free pre-incubation, plaque assay). In kind it is cell-based, Zika virus.
The test system of series [9] is ZIKV. In words: Virion destabilization assay (RNase A, qRT-PCR). The series is classed as biochemical, Zika virus. To be noted: 50 µM, 1 h, 37 °C, then RNase A.
The subject of series [10] is ZIKV. In words: Liposome-based capsid protection assay (virus–liposome fusion). In kind it is biochemical, Zika virus. To be noted: trypsin-containing liposomes; pH 5.3; 10, 50 μM.
The subject of series [11] is CHIKV (Guatemala). In words: CPE inhibition assay, CHIKV on Vero E6. In kind it is cell-based, chikungunya virus. The note with it: MOI 0.1, 3 days, MTT.
The test system of series [12] is SARS-CoV-2 (B.1.5 (G) isolate, Hungarian). The series is classed as cell-based, severe acute respiratory syndrome coronavirus 2. To be noted: Vero E6, 3 days, MTT.

“Also recorded” adds a separate entry of the source. A value given as a limit tells only on which side of the number the result lay.

As for `CC(=O)N[C@H]1[C@H](O[C@@H]2c3ccc(c(Cl)c3)Oc3cc4cc(c3O)Oc3ccc(cc3Cl)C[C@H]3NC(=O)[C@H](n5cc(COCCOCCCC(F)(F)C(F)(F)C(F)(F)C(F)(F)C(F)(F)C(F)(F)C(F)(F)C(F)(F)F)nn5)c5ccc(O)c(c5)Oc5cc(O)cc(c5)[C@H](NC3=O)C(=O)N[C@H]4C(=O)N[C@H]3C(=O)N[C@@H]2C(=O)N[C@H](C(=O)O)c2cc(O)cc(O)c2-c2cc3ccc2O)O[C@H](CO)[C@@H](O)[C@@H]1O` [Compound 1], in series [1], the MCC was above 50 µM. In [2], this compound had a CC50 of 149 µM.

In the case of `CC(=O)N[C@H]1[C@H](O[C@@H]2c3ccc(c(Cl)c3)Oc3cc4cc(c3O)Oc3ccc(cc3Cl)C[C@H]3NC(=O)[C@H](n5cc(COCCOCCCC(F)(F)C(F)(F)C(F)(F)C(F)(F)C(F)(F)C(F)(F)F)nn5)c5ccc(O)c(c5)Oc5cc(O)cc(c5)[C@H](NC3=O)C(=O)N[C@H]4C(=O)N[C@H]3C(=O)N[C@@H]2C(=O)N[C@H](C(=O)O)c2cc(O)cc(O)c2-c2cc3ccc2O)O[C@H](CO)[C@@H](O)[C@@H]1O` [Compound 2], the MCC in [1] is recorded as above 40 µM. In series [2], this compound returned a CC50 of 195 µM. For the same compound, the “cytopathic effects (microscopy)” value in series [3] was “we did not observed any CPE; also recorded: No cytopathic effects were observed”.

As to `CC(=O)N[C@H]1[C@H](O[C@@H]2c3ccc(c(Cl)c3)Oc3cc4cc(c3O)Oc3ccc(cc3Cl)C[C@H]3NC(=O)[C@H](n5cc(COCCOCCCC(F)(F)C(F)(F)C(F)(F)C(F)(F)F)nn5)c5ccc(O)c(c5)Oc5cc(O)cc(c5)[C@H](NC3=O)C(=O)N[C@H]4C(=O)N[C@H]3C(=O)N[C@@H]2C(=O)N[C@H](C(=O)O)c2cc(O)cc(O)c2-c2cc3ccc2O)O[C@H](CO)[C@@H](O)[C@@H]1O` [Compound 3], the MCC in series [1] is given as above 50 µM. The same compound gave a CC50 in series [2] of 198 µM. Also, the “cytopathic effects (microscopy)” value in series [3] was “we did not observed any CPE; also recorded: No cytopathic effects were observed”.

In the case of `CC(=O)N[C@H]1[C@H](O[C@@H]2c3ccc(c(Cl)c3)Oc3cc4cc(c3O)Oc3ccc(cc3Cl)C[C@H]3NC(=O)[C@H](NC(=O)CCC(F)(F)C(F)(F)C(F)(F)C(F)(F)C(F)(F)C(F)(F)C(F)(F)C(F)(F)F)c5ccc(O)c(c5)Oc5cc(O)cc(c5)[C@H](NC3=O)C(=O)N[C@H]4C(=O)N[C@H]3C(=O)N[C@@H]2C(=O)N[C@H](C(=O)O)c2cc(O)cc(O)c2-c2cc3ccc2O)O[C@H](CO)[C@@H](O)[C@@H]1O` [Compound 6], the MCC in series [1] was above 60 µM. This compound returned a CC50 in [2] of 175 µM. In series [3], the “cytopathic effects (microscopy)” value is listed as “we did not observed any CPE; also recorded: No cytopathic effects were observed”.

As to `CC(=O)NC1C(OC2c3ccc(c(Cl)c3)Oc3cc4cc(c3O)Oc3ccc(cc3Cl)CC3NC(=O)C(NC(=O)CCC(F)(F)C(F)(F)C(F)(F)C(F)(F)C(F)(F)C(F)(F)F)c5ccc(O)c(c5)Oc5cc(O)cc(c5)C(NC3=O)C(=O)NC4C(=O)NC3C(=O)NC2C(=O)NC(C(=O)O)c2cc(O)cc(O)c2-c2cc3ccc2O)OC(CO)C(O)C1O` (stereo not drawn) [Compound 7], the “concentration from which phospholipidosis is detectable” value in series [4] was at least 2500 nM. In addition, in series [4] (positive control propranolol 30 µM), the phospholipidosis response entry is “weak phospholipidosis response”. Moreover, the MCC in series [1] is above 60 µM. Also, the “viral RNA level vs no-treatment, pre-treatment (before infection)” value in series [5] (1 h before infection) is on record as “No significant inhibition”. Also, the “viral RNA level vs no-treatment, post-treatment (after viral entry)” value in [5] (1 h post-infection) was “No significant inhibition”. Moreover, the “viral RNA level, binding assay, treated vs control” value in series [6] is “No significant differences”. This compound showed a half-maximal cytotoxic concentration (CC50) in [2] of 203 µM. In addition, the “cytopathic effects (microscopy)” value in series [3] is on record as “No cytopathic effects were observed”. Moreover, in series [7], the “viral RNA level, entry assay, treated vs control” value is reported as “No significant differences”. Besides, the “reduction of viral titer vs untreated control” value in [8] is on record as “approximately one order of magnitude”. For the same compound, the “viral RNA copy number vs negative control (virion integrity)” value in series [9] is “No significant reduction”. Moreover, the “capsid protein signal under low-pH fusion conditions (Western blot)” value in series [10] was “preserved the capsid signal”.

Consider `COC(=O)C1NC(=O)C2NC(=O)C(NC(=O)C3NC(=O)C4NC(=O)C(NC(=O)C(NC(=O)CCC(F)(F)C(F)(F)C(F)(F)C(F)(F)C(F)(F)C(F)(F)C(F)(F)C(F)(F)F)c5ccc(O)c(c5)Oc5cc4cc(O)c5C)C(O)c4ccc(cc4)Oc4cc3cc(c4O)Oc3ccc(cc3)C2O)c2ccc(O)c(c2)-c2c(O)cc(O)cc21` (stereo not drawn) [Compound 8], for which the MCC in series [1] was above 20 µM. Further, in series [2], the “cytotoxic effects (in words)” value is “slightly cytotoxic” and the CC50 was found to be 62.6 µM.

For the compound Teicoplanin [reference compound], the MCC in series [1] is given as above 60 µM. Moreover, the EC50 in series [11] was 86.2 µM; in series [12] it was 33.9 µM. In [2], this compound displayed a CC50 of 280 µM.
